Experimental data as given in the Deep4Chem optical property database.
Each block holds one compound with its values, some of them ahead of it.

Assay: photoluminescence quantum yield (fraction); solvent given as SMILES

SMILES: O=c1oc2ccccc2cc1-c1nc2ccccc2o1
- photoluminescence quantum yield (in C1CCOC1): 0.77
- photoluminescence quantum yield (in C1COCCO1): 0.84
- photoluminescence quantum yield (in CC1CCCCC1): 0.94
- photoluminescence quantum yield (in CC#N): 0.72
- photoluminescence quantum yield (in CC(C)=O): 0.76
- photoluminescence quantum yield (in CC(C)CO): 0.8
- photoluminescence quantum yield (in CC(C)O): 0.76
- photoluminescence quantum yield (in CCOC(C)=O): 0.86
- photoluminescence quantum yield (in CN(C)C=O): 0.72
- photoluminescence quantum yield (in CO): 0.67
- photoluminescence quantum yield (in CS(C)=O): 0.77
- photoluminescence quantum yield (in Cc1ccccc1): 0.83
- photoluminescence quantum yield (in ClC(Cl)(Cl)Cl): 0.92
- photoluminescence quantum yield (in ClC(Cl)Cl): 0.87
- photoluminescence quantum yield (in OCCO): 0.68

- photoluminescence quantum yield (in ClCCl): 0.47
SMILES: Cc1ccc2nc3cc4ccccc4cc3c(-c3ccccc3)c2c1

- photoluminescence quantum yield (in ClCCl): 0.1
SMILES: CCCCn1c2ccc(C#N)cc2c2cc(C#N)ccc21

SMILES: CC(C)(C)c1ccc2c(c1)sc1[n+]2[B-](F)(F)n2c(c3cccc4cccc2c43)=C1C#N
- photoluminescence quantum yield (in C1CCOC1): 0.67
- photoluminescence quantum yield (in CC#N): 0.74
- photoluminescence quantum yield (in CCCCCC): 0.68
- photoluminescence quantum yield (in Cc1ccccc1): 0.69
- photoluminescence quantum yield (in ClCCl): 0.7

- photoluminescence quantum yield (in C1COCCO1): 0.09
- photoluminescence quantum yield (in CCO): 0.14
- photoluminescence quantum yield (in CN(C)C=O): 0.14
- photoluminescence quantum yield (in ClC(Cl)Cl): 0.13
SMILES: CCCCCCCN1C(=CC2=C([O-])C(=Cc3sc4ccccc4[n+]3CCCCCCC)C2=C(C#N)C#N)Sc2ccccc21

- photoluminescence quantum yield (in CCO): 0.17
SMILES: CCOC(=O)c1cc(C(=O)OCC)c2cccc(O)c2n1

- photoluminescence quantum yield (in ClCCl): 0.51
SMILES: COc1ccc(-c2c3ccccc3c(C#Cc3ccccc3)c3ccccc23)cc1

- photoluminescence quantum yield (in CC#N): 0.134
- photoluminescence quantum yield (in CCCCCC): 0.418
- photoluminescence quantum yield (in CO): 0.0206
- photoluminescence quantum yield (in ClC(Cl)Cl): 0.214
SMILES: c1ccc2c(-c3cc(-c4nccs4)nc(-c4nccs4)c3)c3ccccc3cc2c1

- photoluminescence quantum yield (in CO): 0.14
SMILES: CC1(C)C(/C=C/C2=C(Oc3ccc(CCN=C=S)cc3Cl)C(=C/C=C3/N(CCCS(=O)(=O)[O-])c4ccccc4C3(C)C)/CCC2)=[N+](CCCS(=O)(=O)[O-])c2ccccc21

- photoluminescence quantum yield (in CC#N): 0.2
- photoluminescence quantum yield (in CCO): 0.29
- photoluminescence quantum yield (in CO): 0.3
- photoluminescence quantum yield (in ClC(Cl)Cl): 0.46
SMILES: C[N+]1=C(/C=C/C2=C3Oc4c(cc5c6c4CCCN6CCC5)C(c4ccccc4C(=O)O)=C3CCC2)C(C)(C)c2c1ccc1ccccc21

- photoluminescence quantum yield (in c1ccccc1): 0.526
SMILES: CN(C)c1ccc2nc(-c3ccccc3)c(=O)oc2c1

- photoluminescence quantum yield (in C1CCOC1): 0.56
SMILES: Cc1ccc(C2=C3C=CC([Se]c4ccccc4)=[N+]3[B-](F)(F)n3c([Se]c4ccccc4)ccc32)cc1

- photoluminescence quantum yield (in C1CCCCC1): 0.93
SMILES: CCCC1(CCC)c2cc(-c3ccc4c(c3)C(CCC)(CCC)c3cc(C(C)(C)CC)ccc3-4)ccc2-c2ccc(-c3ccc4c(c3)C(CCC)(CCC)c3cc(C(C)(C)CC)ccc3-4)cc21

- photoluminescence quantum yield (in ClCCl): 0.57
SMILES: c1ccc2cc(-c3c4ccccc4c(-c4nccc5ccccc45)c4ccccc34)ccc2c1

SMILES: CCOc1ccc(/C=C/C=C/C=C/c2ccc([N+](=O)[O-])cc2)cc1
- photoluminescence quantum yield (in CC1CCCCC1): 0.22
- photoluminescence quantum yield (in CC#N): 0.017
- photoluminescence quantum yield (in Cc1ccccc1): 0.5
- photoluminescence quantum yield (in ClCCl): 0.068

- photoluminescence quantum yield (in C1COCCO1): 0.029
- photoluminescence quantum yield (in CC#N): 0.011
- photoluminescence quantum yield (in CCO): 0.099
- photoluminescence quantum yield (in CCOC(C)=O): 0.017
- photoluminescence quantum yield (in O): 0.004
SMILES: CN1C(=O)/C(=C/c2ccncc2)N=C1/C=C/c1ccccc1

SMILES: CCn1c2ccccc2c2cc(/C=C/c3cc(/C=C/c4ccc5c(c4)c4ccccc4n5CC)[n+](CCCS(=O)(=O)[O-])c(/C=C/c4ccc5c(c4)c4ccccc4n5CC)c3)ccc21
- photoluminescence quantum yield (in C1CCOC1): 0.12
- photoluminescence quantum yield (in CC#N): 0.05
- photoluminescence quantum yield (in CC(C)=O): 0.05
- photoluminescence quantum yield (in Cc1ccccc1): 0.09

- photoluminescence quantum yield (in ClC(Cl)Cl): 0.47
SMILES: Fc1cccc(C2=Cc3ccc4ccccc4[n+]3[B-](F)(F)O2)c1

SMILES: CC(C)[Si]1(C(C)C)c2cc(N(C)C)ccc2-c2ccc(C(F)(F)F)cc21
- photoluminescence quantum yield (in C1CCCCC1): 0.37
- photoluminescence quantum yield (in CC#N): 0.4
- photoluminescence quantum yield (in CCO): 0.28
- photoluminescence quantum yield (in CCOCC): 0.35
- photoluminescence quantum yield (in CS(C)=O): 0.17
- photoluminescence quantum yield (in ClCCl): 0.33
- photoluminescence quantum yield (in c1ccccc1): 0.29

- photoluminescence quantum yield (in CC#N): 0.1
SMILES: COC(=O)c1c(NC(C)(C)C)oc(-c2ccccc2)c1C(=O)OC
